Read-outs that look alike come from different tables or passages of the source.
Key:
HK2 cells = test: mRNA expression of fibrosis markers in HK2 cells; format: cell-based
murine UUO model = test: Murine unilateral ureteral obstruction (UUO) kidney fibrosis model; format: in vivo, Male C57BL/6 mice; settings: 25 mg/kg by gavage daily, 7-days post-UUO
Protocol: Inhibiting Hck activity in vivo with Example 2 attenuates kidney fibrosis in murine UUO model: Unilateral ureteral obstruction (UUO) was performed on Male C57BL/6 mice (˜10 weeks age). Mice were perfused 7-days post UUO. The inhibitory activity of the compounds of the invention as compared to controls was determined. The UUO mice were treated with Example 2 at 25 mg/kg or vehicle (n=5) by gavage daily started one day prior to the surgery to 7-days post-surgery. […] Compounds of the invention are promising HCK-specific inhibitors.
FIG. 1 depicts mRNA—levels of pro-fibrotic markers at 7-days post-UUO by RT-PCR (normalized to GAPDH), from whole cortices of control and UUO kidneys of Example 2 and PBS-fed animals. […] Values are mean±SEM. *P<0.05.

[1] = test system: SMAD3 transcriptional activity in HEK293 cells; test: SMAD3 transcriptional activity in HEK293 cells; format: cell-based
Cytotoxicity = format: cell-based; settings: at 50 uM (data not shown)
HCK kinase = molecular target: T1, HCK kinase (Homo sapiens, UniProt P08631); test: HCK activity inhibition, radioactive kinase assay (Reaction Biology Corp); format: biochemical
T1 construct: purchased Reaction Biology Corp
Protocol: HCK activity inhibition efficiency for the inhibitors. Inhibiting efficiency is performed in Reaction Biology with Corp P32 radioactive kinase assay, comparing compounds of the invention with dasatinib for HCK, Bcr-Abl and other binding kinases identified in the reference. Briefly, HCK kinase was delivered into the substrate solution and gently mixed, then compounds in DMSO were added into the kinase reaction mixture by Acoustic technology (Echo550; Nano liter range), and incubated for 20 minutes at room temperature. 33P-ATP was delivered into the reaction mixture to initiate the reaction. The kinase reaction was incubated for 2 hours at room temperature. Reactions were spotted onto P81 ion exchange paper, and detected kinase activity was measured by filter-binding method.

Src-family kinase (SFK) = test: Inhibition of all Src-family kinase (SFK) activity; format: biochemical; settings: FIG. 3
[2] = compared with vehicle-treated mice

T1 sequence (P08631 whole entry): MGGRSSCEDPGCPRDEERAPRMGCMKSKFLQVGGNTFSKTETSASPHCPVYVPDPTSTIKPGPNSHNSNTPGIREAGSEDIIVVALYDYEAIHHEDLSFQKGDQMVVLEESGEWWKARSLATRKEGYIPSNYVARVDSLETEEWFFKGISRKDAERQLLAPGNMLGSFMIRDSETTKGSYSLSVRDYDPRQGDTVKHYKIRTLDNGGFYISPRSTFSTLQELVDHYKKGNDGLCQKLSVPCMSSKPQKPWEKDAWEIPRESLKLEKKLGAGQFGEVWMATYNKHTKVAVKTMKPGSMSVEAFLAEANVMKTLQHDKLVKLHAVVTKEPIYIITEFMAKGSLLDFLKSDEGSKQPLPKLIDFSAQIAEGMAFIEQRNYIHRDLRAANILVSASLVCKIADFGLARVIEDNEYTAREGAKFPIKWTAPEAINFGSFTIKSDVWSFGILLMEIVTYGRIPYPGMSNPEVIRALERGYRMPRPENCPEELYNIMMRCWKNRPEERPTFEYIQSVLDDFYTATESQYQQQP

- IC50 (HCK kinase; HCK, read-out: IC50): < 20 µM
- IC50 (HCK kinase; radioactive kinase assay, 33P-ATP, 2 hours at room temperature, read-out: IC50 for HCK activity): ~12 µM
- selectivity among Src-family kinases (Src-family kinase (SFK)): selectivity to HCK inhibition
Structure (SMILES): Clc1cc(Cl)c2c(c1)C=C(C1=NOB(c3ccccc3)N1)C(c1ccccc1)O2 (centres unmarked) [Example 2, 3-(6,8-dichloro-2-phenyl-2H-chromen-3-yl)-5-phenyl-4,5-dihydro-1,2,4,5-oxadiazaborole]
- mRNA expression of fibrosis markers (HK2 cells; FIG. 4): reduced
- mRNA expression of COL1A1 (HK2 cells; HK2 cells): reduced
- mRNA expression of FN1 (HK2 cells; HK2 cells): reduced
- mRNA expression of SNAIL (HK2 cells; HK2 cells): reduced
- renal fibrosis in the UUO kidneys (Masson and collagen I staining) (murine UUO model): reduced renal fibrosis
- RTEC injury in the UUO kidney (H&E staining) (murine UUO model; compared to vehicle-treated mice): reduced RTEC injury
- expression of Col1a1 in the UUO kidney (murine UUO model; [2]): significantly decreased
- expression of FSP-1 in the UUO kidney (murine UUO model; [2]): significantly decreased
- expression of Fibronectin in the UUO kidney (murine UUO model; [2]): significantly decreased
- SMAD3 transcriptional activity [1]: reduced
- cytotoxicity (Cytotoxicity): no cytotoxicity

From patent publication US12441746B2, “HCK inhibitors for the treatment of fibrosis and cancer” (Icahn School of Medicine at Mount Sinai, priority 2020, dated 2025)
